Reference: PMC2774495 (Cancer chemotherapy and pharmacology, 2009)
Read-outs that look alike come from different tables or passages of the source.

Experiments:
[1] = tested on: CYP1A2; settings: read-out: Ki for inhibition of CYP1A2; in vitro; cited from earlier work
[2] = tested on: 2C9; settings: read-out: Ki for inhibition of CYP2C9; in vitro; cited from earlier work
[3] = target: T1, expressed CYP2B6 (Homo sapiens, UniProt P20813); assay: Inhibition of expressed CYP2B6; format: biochemical; settings: read-out: Ki values, expressed CYP2B6; expressed CYP2B6 52 pmol/ml, efavirenz 10–75 μM, mean ± SE, competitive model
T1 sequence (P20813 1-491): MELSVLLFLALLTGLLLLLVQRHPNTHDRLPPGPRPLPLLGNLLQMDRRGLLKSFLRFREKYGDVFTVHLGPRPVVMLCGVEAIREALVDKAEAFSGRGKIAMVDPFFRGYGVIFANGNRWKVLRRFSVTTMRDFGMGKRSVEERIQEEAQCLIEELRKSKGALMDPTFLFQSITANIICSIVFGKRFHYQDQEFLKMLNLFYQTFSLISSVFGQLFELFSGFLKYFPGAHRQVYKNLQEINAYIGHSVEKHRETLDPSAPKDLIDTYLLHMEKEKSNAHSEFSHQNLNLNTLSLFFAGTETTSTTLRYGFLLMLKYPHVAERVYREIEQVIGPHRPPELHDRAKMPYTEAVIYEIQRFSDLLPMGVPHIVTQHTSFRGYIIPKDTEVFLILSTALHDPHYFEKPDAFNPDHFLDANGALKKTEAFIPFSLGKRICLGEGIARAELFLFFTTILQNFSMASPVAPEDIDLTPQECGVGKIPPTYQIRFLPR

[4] = target: T2, CYP2B6 (Homo sapiens, UniProt P20813); assay: Inhibition of CYP2B6
T2 sequence (P20813 1-491): T1 sequence (P20813 1-491)

[5] = cited from earlier work
[6] = target: T3, expressed CYP2C19 (Homo sapiens, UniProt P33261); settings: read-out: Ki values, expressed CYP2C19; expressed 2C19 52 pmol/ml, S-mephenytoin 10–75 μM, mean ± SE, competitive model
[7] = target: T4, CYP2C19 (Homo sapiens, UniProt P33261)
[8] = target: T5, CYP2A6 (Homo sapiens, UniProt P11509); assay: Inhibition of CYP2A6
T5 sequence (P11509 1-494): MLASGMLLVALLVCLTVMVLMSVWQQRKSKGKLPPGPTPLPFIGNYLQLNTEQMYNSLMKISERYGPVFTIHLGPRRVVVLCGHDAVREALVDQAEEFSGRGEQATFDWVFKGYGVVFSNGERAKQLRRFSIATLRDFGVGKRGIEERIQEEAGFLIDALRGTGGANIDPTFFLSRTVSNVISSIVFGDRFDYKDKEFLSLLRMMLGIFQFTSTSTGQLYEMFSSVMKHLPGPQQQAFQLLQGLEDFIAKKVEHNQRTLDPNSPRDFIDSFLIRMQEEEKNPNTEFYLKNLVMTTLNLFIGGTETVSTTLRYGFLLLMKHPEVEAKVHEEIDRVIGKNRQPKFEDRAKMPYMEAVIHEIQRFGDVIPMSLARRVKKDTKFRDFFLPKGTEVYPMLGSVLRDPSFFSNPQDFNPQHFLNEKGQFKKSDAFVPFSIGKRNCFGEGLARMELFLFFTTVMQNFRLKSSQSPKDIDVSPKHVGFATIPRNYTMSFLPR

[9] = target: T5, CYP2A6; assay: in vitro; settings: microsomes, pH 7.4
[10] = target: CYP2D6 (Homo sapiens, UniProt P10635); assay: in vitro; settings: microsomes, pH 7.4
[11] = tested on: CYP isoforms; assay: Assessment of time-dependent inactivation; format: biochemical, human; settings: preincubation 0 and 15 min with HLM and cofactors, data not shown
[12] = cited from earlier work; remark: listed apart in the source
[13] = target: T6, expressed CYP2A6 (Homo sapiens, UniProt P11509); assay: Inhibition of expressed CYP2A6; format: biochemical
T6 sequence (P11509 1-494): T5 sequence (P11509 1-494)

[14] = rat liver tissues; cited from earlier work
[15] = target: T3, expressed CYP2C19; assay: biochemical
[16] = target: CYP2C9 (Homo sapiens, UniProt P11712); assay: in vitro; settings: microsomes, pH 7.4
[17] = tested on: CYP3A; assay: Inhibition of CYP3A; format: biochemical; settings: human, human liver microsomes, pH 7.4, probe midazolam 10 μM (1′-hydroxylation)
[18] = tested on: CYP2C8; assay: Inhibition of CYP2C8; format: biochemical; settings: human, human liver microsomes, pH 7.4, probe amodiaquine 5 μM (desethylation)
[19] = target: T5, CYP2A6; assay: Prediction of in vivo AUC change of CYP2A6 substrates from in vitro Ki; settings: for AUCI/AUCUI ratio expected in vivo, CYP2A6, free letrozole: unbound letrozole (fu 0.2–0.4)
[20] = cited from earlier work; remark: listed apart in the source
[21] = target: T4, CYP2C19; assay: biochemical
[22] = target: T2, CYP2B6; assay: in vitro; settings: microsomes, pH 7.4

T3 sequence (P33261 whole entry): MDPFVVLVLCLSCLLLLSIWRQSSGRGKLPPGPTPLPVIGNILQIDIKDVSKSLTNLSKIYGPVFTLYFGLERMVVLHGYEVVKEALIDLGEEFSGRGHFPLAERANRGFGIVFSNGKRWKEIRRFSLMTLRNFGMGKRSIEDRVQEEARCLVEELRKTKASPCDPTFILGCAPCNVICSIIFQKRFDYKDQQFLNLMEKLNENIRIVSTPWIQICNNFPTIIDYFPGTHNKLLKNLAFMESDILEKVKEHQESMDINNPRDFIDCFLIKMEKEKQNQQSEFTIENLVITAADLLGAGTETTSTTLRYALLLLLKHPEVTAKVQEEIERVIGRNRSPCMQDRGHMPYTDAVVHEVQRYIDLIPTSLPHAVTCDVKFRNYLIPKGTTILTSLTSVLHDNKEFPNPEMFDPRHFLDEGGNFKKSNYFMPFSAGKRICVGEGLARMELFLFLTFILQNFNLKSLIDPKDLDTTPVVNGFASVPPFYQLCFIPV
T4 sequence (P33261 whole entry): as above
Sequence of CYP2D6 (P10635 whole entry, canonical isoform): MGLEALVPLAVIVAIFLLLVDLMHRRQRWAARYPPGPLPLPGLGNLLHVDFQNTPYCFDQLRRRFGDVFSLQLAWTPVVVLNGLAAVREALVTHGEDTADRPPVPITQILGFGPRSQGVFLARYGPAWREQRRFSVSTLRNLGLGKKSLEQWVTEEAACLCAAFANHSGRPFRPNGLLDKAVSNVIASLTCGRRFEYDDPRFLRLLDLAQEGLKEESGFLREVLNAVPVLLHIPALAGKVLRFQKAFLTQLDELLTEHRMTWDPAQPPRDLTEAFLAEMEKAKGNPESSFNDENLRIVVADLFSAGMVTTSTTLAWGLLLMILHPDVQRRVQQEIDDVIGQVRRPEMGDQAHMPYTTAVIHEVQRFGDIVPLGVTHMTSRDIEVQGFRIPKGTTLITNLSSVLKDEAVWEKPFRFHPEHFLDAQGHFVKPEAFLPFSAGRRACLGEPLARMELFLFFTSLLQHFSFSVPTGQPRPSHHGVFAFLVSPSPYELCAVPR
Sequence of CYP2C9 (P11712 whole entry): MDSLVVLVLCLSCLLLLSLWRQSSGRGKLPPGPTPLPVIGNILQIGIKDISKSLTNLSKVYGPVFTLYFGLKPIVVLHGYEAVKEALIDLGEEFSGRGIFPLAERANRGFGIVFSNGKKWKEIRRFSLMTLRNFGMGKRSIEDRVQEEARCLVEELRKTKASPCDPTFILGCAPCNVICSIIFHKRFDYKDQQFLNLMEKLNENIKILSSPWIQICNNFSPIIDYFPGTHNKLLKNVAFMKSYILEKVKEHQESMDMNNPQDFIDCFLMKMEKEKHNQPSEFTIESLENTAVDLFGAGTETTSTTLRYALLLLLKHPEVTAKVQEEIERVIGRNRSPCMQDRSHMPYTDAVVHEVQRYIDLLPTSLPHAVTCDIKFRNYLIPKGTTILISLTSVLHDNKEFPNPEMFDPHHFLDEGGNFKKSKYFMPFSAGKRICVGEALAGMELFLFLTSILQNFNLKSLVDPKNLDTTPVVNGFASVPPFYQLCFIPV

For CC(C)(C#N)c1cc(Cn2cncn2)cc(C(C)(C)C#N)c1 [anastrozole], the Ki [1] is given as 8 to 10 µM and the Ki [2] is given as 8 to 10 µM.

With N#Cc1ccc(C(O)c2ccc(C#N)cc2)cc1 [letrozole metabolite, 4,4′-methanol-bisbenzonitrile] the Ki [3] was 40.4 ± 14.6 µM, the “Mode of inhibition of CYP2B6” value ([4]; Dixon plots and enzyme inhibition models, HLMs and expressed CYP2B6) was “competitive” and the Ki ([4]; read-out: Ki values, CYP2B6, HLMs, HLMs (HL-091499) 0.5 mg/ml, efavirenz 10–75 μM, mean ± SE, competitive model) was 12.9 ± 3.8 µM. The “Fraction of letrozole dose accounted for by the metabolite” value ([5]; human) was “over 60%”, the Ki [6] was 4.5 ± 0.7 µM and the “Mode of inhibition of CYP2C19” value ([7]; Dixon plots and enzyme inhibition models, HLMs and expressed CYP2C19) was “competitive”. For the same compound, the Ki ([7]; read-out: Ki values, CYP2C19, HLMs, HLMs (SD-101) 0.5 mg/ml, S-mephenytoin 10–75 μM, mean ± SE, competitive model) was 19.5 ± 0.5 µM and the “Effect on CYP2A6 activity” value ([8]; HLMs, 0–100 μM) was “lack of any effect”.

For N#Cc1ccc(C(c2ccc(C#N)cc2)n2cncn2)cc1 [letrozole, 4,4′-[(1H-1,2,4-triazol-1-yl)methylene] bis-benzonitrile], the Ki at 15 min [9] is given as 4.6 ± 0.1 µM, the inhibition at 30 min, 100 μM [10] is given as less than 20% and the Absolute bioavailability [5] is given as 99.9%. The “Exposure at steady state higher than at a single dose” value [5] was 28%, the “Radioactivity in plasma accounted by unchanged drug” value ([5]; following 14C-labeled letrozole (2.5 mg)) was “Approximately 82%” and the Cmax ([5]; read-out: Average maximum plasma concentration (Cmax) at steady state, women with breast cancer, 2.5 mg/day) was roughly 0.5 µM. For the same compound, the “Time dependence of inhibition of CYPs” value [11] was “not time dependent”, the Plasma protein binding [12] was 60% and the IC50 [13] was 12.5 µM. The Ki [13] was 5 ± 2.4 µM, the “Liver tissue concentration relative to plasma” value [14] was “> sevenfold” and the IC50 [15] was 62.9 µM. The Ki ([15]; Ki values, expressed CYP2C19, expressed 2C19 52 pmol/ml, S-mephenytoin 10–75 μM, mean ± SE, competitive model) was 33.3 µM, the inhibition at 60 min, 100 μM [16] was less than 20% and the inhibition at 5 min, 100 μM [17] was less than 20%. For the same compound, the inhibition at 15 min, 100 μM [18] was less than 20%, the “AUCI/AUCUI ratio expected in vivo, CYP2A6, total letrozole” value ([19]; letrozole plasma concentration 0.5–1 μM (bound + unbound), Ki from HLMs) was 1.11–1.22 and the “Predicted increase in exposure of CYP2A6 substrates (maximum)” value ([19]; predicted from in vitro Ki) was 11–22%. For the same compound, the “AUCI/AUCUI ratio expected in vivo, CYP2A6, free letrozole” value ([19]; Ki from HLMs) was “close to unity”, the “AUCI/AUCUI ratio expected in vivo, CYP2A6, free letrozole” value ([19]; Ki from HLMs, listed as Letrozole) was 1.04–1.09 and the “Effect on the pharmacokinetics of known CYP substrates including warfarin, diazepam, and tamoxifen” value [20] was “lack of letrozole's effect”. The IC50 [21] was 24.8 µM, the Ki [21] was 42.2 ± 3.8 µM and the “Fold Ki for CYP2C19 above therapeutic plasma concentrations of letrozole” value ([7]; human) was “over 40 fold”. The “Mode of inhibition of CYP2C19” value ([7]; microsomes) was “competitive”, the IC50 [8] was 5.9 µM and the “Mode of inhibition of CYP2A6” value ([8]; Dixon plots and enzyme inhibition models, HLMs and expressed CYP2A6) was “competitive”. It also gave an inhibition at 10 min, 100 μM [22] of less than 20%.
